{"source": "paper PMC3914206", "key": {"panel of 442 kinases [1]": {"target": "T1, panel of 442 kinases (Homo sapiens, UniProt Q13705)", "T1 construct": "purchased KINOMEscan", "T1 sequence (Q13705 19-512)": "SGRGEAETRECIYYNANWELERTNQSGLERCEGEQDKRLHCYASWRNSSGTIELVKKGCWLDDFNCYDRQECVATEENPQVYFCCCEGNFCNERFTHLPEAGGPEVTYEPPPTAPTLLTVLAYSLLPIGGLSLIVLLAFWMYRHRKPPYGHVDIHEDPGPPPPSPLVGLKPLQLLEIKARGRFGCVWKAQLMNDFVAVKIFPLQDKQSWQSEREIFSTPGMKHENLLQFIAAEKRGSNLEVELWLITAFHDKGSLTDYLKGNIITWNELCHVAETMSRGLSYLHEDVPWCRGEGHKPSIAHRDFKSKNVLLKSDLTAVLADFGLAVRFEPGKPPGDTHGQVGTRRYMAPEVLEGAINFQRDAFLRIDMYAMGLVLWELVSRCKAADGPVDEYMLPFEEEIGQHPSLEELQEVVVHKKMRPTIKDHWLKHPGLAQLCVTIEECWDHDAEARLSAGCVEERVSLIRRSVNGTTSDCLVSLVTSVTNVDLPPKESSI", "format": "binding", "design": "KINOMEscan: ABL1(F317L)-phosphorylated / KINOMEscan: ABL1(H396P)-nonphosphorylated / KINOMEscan: ABL1(H396P)-phosphorylated / KINOMEscan: ABL1(M351T)-phosphorylated / KINOMEscan: ABL1(T315I)-phosphorylated / KINOMEscan: ABL1-nonphosphorylated / KINOMEscan: ABL1-phosphorylated / KINOMEscan: ACVR2A / KINOMEscan: ACVR2B / KINOMEscan: ADCK3 / KINOMEscan: ADCK4 / KINOMEscan: AKT1 / KINOMEscan: AKT3 / KINOMEscan: ALK / KINOMEscan: ARK5 / KINOMEscan: AURKA / KINOMEscan: AURKC / KINOMEscan: BIKE / KINOMEscan: BMPR1A / KINOMEscan: BMPR1B / KINOMEscan: BMX / KINOMEscan: BRK / KINOMEscan: BRSK1 / KINOMEscan: BRSK2 / KINOMEscan: CAMK1 / KINOMEscan: CAMK1D / KINOMEscan: CAMK1G / KINOMEscan: CAMK2A / KINOMEscan: CAMK2B / KINOMEscan: AAK1 / KINOMEscan: CAMK2D / KINOMEscan: CAMK2G / KINOMEscan: ABL1(F317I)-nonphosphorylated / KINOMEscan: ABL1(F317I)-phosphorylated / KINOMEscan: ABL1(F317L)-nonphosphorylated: unit: % Ctrl", "conditions": "Compound Concentration 10 µM", "source_text": "(§1) We assessed the selectivity of members of this scaffold using the KINOMEscan methodology across a near comprehensive panel of 442 kinases [[18,27]]."}, "panel of 442 kinases [2]": {"target": "T2, panel of 442 kinases (Homo sapiens, UniProt Q6P3R8)", "T2 construct": "purchased KINOMEscan", "T2 sequence (Q6P3R8 1-708)": "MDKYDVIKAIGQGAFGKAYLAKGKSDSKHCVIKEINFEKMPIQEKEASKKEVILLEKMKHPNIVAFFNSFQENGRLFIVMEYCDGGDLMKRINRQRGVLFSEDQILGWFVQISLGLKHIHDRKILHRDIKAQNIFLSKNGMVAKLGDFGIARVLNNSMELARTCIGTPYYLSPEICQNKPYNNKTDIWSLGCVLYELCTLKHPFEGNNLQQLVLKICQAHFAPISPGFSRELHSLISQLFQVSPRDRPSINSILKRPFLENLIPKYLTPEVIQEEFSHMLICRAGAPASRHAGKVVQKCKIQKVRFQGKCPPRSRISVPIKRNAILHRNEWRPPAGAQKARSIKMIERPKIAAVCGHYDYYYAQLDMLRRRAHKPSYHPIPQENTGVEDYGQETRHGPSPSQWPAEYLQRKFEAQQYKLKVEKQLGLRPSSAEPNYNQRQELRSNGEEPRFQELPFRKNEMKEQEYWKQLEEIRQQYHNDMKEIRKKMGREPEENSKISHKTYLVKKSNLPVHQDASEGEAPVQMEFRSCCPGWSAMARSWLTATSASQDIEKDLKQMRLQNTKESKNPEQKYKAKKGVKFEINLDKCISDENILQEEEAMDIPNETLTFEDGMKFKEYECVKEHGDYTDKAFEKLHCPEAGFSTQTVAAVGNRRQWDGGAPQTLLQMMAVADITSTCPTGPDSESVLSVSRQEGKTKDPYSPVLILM", "format": "binding", "design": "KINOMEscan: ABL1(F317L)-phosphorylated / KINOMEscan: ABL1(H396P)-nonphosphorylated / KINOMEscan: ABL1(H396P)-phosphorylated / KINOMEscan: ABL1(M351T)-phosphorylated / KINOMEscan: ABL1(T315I)-phosphorylated / KINOMEscan: ABL1-nonphosphorylated / KINOMEscan: ABL1-phosphorylated / KINOMEscan: ACVR2A / KINOMEscan: ACVR2B / KINOMEscan: ADCK3 / KINOMEscan: ADCK4 / KINOMEscan: AKT1 / KINOMEscan: AKT3 / KINOMEscan: ALK / KINOMEscan: ARK5 / KINOMEscan: AURKA / KINOMEscan: AURKC / KINOMEscan: BIKE / KINOMEscan: BMPR1A / KINOMEscan: BMPR1B / KINOMEscan: BMX / KINOMEscan: BRK / KINOMEscan: BRSK1 / KINOMEscan: BRSK2 / KINOMEscan: CAMK1 / KINOMEscan: CAMK1D / KINOMEscan: CAMK1G / KINOMEscan: CAMK2A / KINOMEscan: CAMK2B / KINOMEscan: AAK1 / KINOMEscan: CAMK2D / KINOMEscan: CAMK2G / KINOMEscan: ABL1(F317I)-nonphosphorylated / KINOMEscan: ABL1(F317I)-phosphorylated / KINOMEscan: ABL1(F317L)-nonphosphorylated: unit: % Ctrl", "conditions": "Compound Concentration 10 µM", "source_text": "as §1"}}}
{"smiles": "CCOc1cc(C(=O)N2CCC(N3CCN(C)CC3)CC2)ccc1Nc1ncc2c(n1)N(C1CCCC1)c1ccccc1C(=O)N2C", "note": "[Compound 26]", "values": [{"measurement": "KINOMEscan: ACVR2B", "setting": "panel of 442 kinases [1]", "result": 100}, {"measurement": "KINOMEscan: NEK5", "setting": "panel of 442 kinases [2]", "result": 100}]}
{"smiles": "COc1cc(C(=O)N2CCC(N3CCN(C)CC3)CC2)ccc1Nc1ncc2c(n1)N(C1CCCC1)c1ccccc1C(=O)N2C", "note": "[Compound 25, 11-cyclopentyl-2-((2-methoxy-4-(4-(4-methylpiperazin-1-yl)piperidine-1-carbonyl)phenyl)amino)-5-methyl-5H-benzo[e]pyrimido[5,4-b][1,4]diazepin-6(11H)-one]", "values": [{"measurement": "KINOMEscan: ACVR2B", "setting": "panel of 442 kinases [1]", "result": 91}, {"measurement": "KINOMEscan: NEK5", "setting": "panel of 442 kinases [2]", "result": 100}]}
{"smiles": "COc1cc(C(=O)N2CCC(N3CCN(C)CC3)CC2)ccc1Nc1ncc2c(n1)N1CCc3cccc(c31)C(=O)N2C", "note": "[Compound 24]", "values": [{"measurement": "KINOMEscan: NEK5", "setting": "panel of 442 kinases [2]", "result": 57}]}
{"smiles": "COc1cc(C(=O)N2CCC(N3CCN(C)CC3)CC2)ccc1Nc1ncc2c(n1)N(C)c1ccccc1C(=O)N2C", "note": "[15 (LRRK2-IN-1)]", "values": [{"measurement": "KINOMEscan: ACVR2B", "setting": "panel of 442 kinases [1]", "result": 100}, {"measurement": "KINOMEscan: NEK5", "setting": "panel of 442 kinases [2]", "result": 100}]}
